*1 amine or outer side, *2 acyl side, *3 side chain or, on linkers, in order; H or OH if unused. Where a SMILES comes first, the peptide text is derived from it. The star is where a group is joined. 5TAMRA = CN(C)c1ccc2c(c1)Oc1cc(N(C)C)ccc1C21OC(=O)c2cc(C(=O)*)ccc21; Cysteamine = C(CS[*:2])N[*:1]

This data set in a line: Drug uptake in lysosomes of human HeLa cells transfected with Cerulean-Lamp-1 plasmid at 1 uM after 1 hr by fluorescence microscopy. Type of data set: ADME, cell-based, Lysosome.

`CN(C)c1ccc2c(c1)Oc1cc(N(C)C)ccc1C21OC(=O)c2cc(C(=O)N[C@@H](CCCNC(=N)N)C(=O)N[C@@H](CCCNC(=N)N)C(=O)N[C@@H](CCCNC(=N)N)C(=O)N[C@@H](CCC(N)=O)C(=O)N[C@@H](CCCNC(=N)N)C(=O)N[C@@H](CCCNC(=N)N)C(=O)N[C@@H](CS)C(=O)N[C@@H](CS)C(=O)N[C@@H](CCCNC(=N)N)C(=O)NCC(=O)N[C@@H](Cc3ccc(O)cc3)C(=O)O)ccc21` (5TAMRA-RRRQRRCCRGY-OH): the Drug uptake entry was “Not Active”. For `CN(C)c1ccc2c(c1)Oc1cc(N(C)C)ccc1C21OC(=O)c2cc(C(=O)N[C@@H](CCCNC(=N)N)C(=O)N[C@@H](CCCNC(=N)N)C(=O)N[C@@H](CCCNC(=N)N)C(=O)N[C@@H](CCC(N)=O)C(=O)N[C@@H](CCCNC(=N)N)C(=O)N[C@@H](CCCNC(=N)N)C(=O)N[C@@H](CSSCCN)C(=O)N[C@@H](CS)C(=O)N[C@@H](CCCNC(=N)N)C(=O)NCC(=O)N[C@@H](Cc3ccc(O)cc3)C(=O)O)ccc21` (5TAMRA-RRRQRRC(Cysteamine)CRGY-OH), the Drug uptake result is “Not Active”.

On to `CN(C)c1ccc2c(c1)Oc1cc(N(C)C)ccc1C21OC(=O)c2cc(C(=O)N[C@@H](CCCNC(=N)N)C(=O)N[C@@H](CCCNC(=N)N)C(=O)N[C@@H](CCCNC(=N)N)C(=O)N[C@@H](CCC(N)=O)C(=O)N[C@@H](CCCNC(=N)N)C(=O)N[C@@H](CCCNC(=N)N)C(=O)N[C@@H](CS)C(=O)N[C@@H](CSSCCN)C(=O)N[C@@H](CCCNC(=N)N)C(=O)NCC(=O)N[C@@H](Cc3ccc(O)cc3)C(=O)O)ccc21` (5TAMRA-RRRQRRCC(Cysteamine)RGY-OH), for which the Drug uptake entry is on record as “Not Active”.

Regarding `CN(C)c1ccc2c(c1)Oc1cc(N(C)C)ccc1C21OC(=O)c2cc(C(=O)N[C@@H](CCCNC(=N)N)C(=O)N[C@@H](CCCNC(=N)N)C(=O)N[C@@H](CCCNC(=N)N)C(=O)N[C@@H](CCC(N)=O)C(=O)N[C@@H](CCCNC(=N)N)C(=O)N[C@@H](CCCNC(=N)N)C(=O)N[C@@H](CSSCCN)C(=O)N[C@@H](CSSCCN)C(=O)N[C@@H](CCCNC(=N)N)C(=O)NCC(=O)N[C@@H](Cc3ccc(O)cc3)C(=O)O)ccc21` (5TAMRA-RRRQRRC(Cysteamine)C(Cysteamine)RGY-OH), the Drug uptake result was “Active”.

The values are drawn from ChEMBL document CHEMBL1268811, “A retro-inverso TAT-like peptide designed to deliver cysteamine to cells” (Bioorg Med Chem Lett, 2010).
